# Laboratory results as given in the supplement of paper PMC11061612.
# Experiments:
# Experiment in all cases: Bliss excess, mean over the matrix (fraction); higher = more synergy
# [1] = system: CAL-78 (Chondrosarcoma)
# Method in brief: (§1)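 Cell lines in DMEM/F12 or RPMI with 10% FBS were plated in 1536-well plates, held 24 hours at 37°C, 5% CO2, then given two-drug dose matrices for 72 hours (DMSO typically 0.2%). Viability was read by CellTiter-Glo 2.0 luminescence and scaled as inhibition from 0 (vehicle wells) to 1 (blank wells). Combination Emax is the second-highest inhibition in the matrix; Bliss excess is observed combination effect minus expected EA + EB − EA·EB, EA and EB being single-agent effects.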
# [2] = system: CFPAC-1 (Pancreatic Carcinoma)
# Method in brief: as §1
# [3] = system: COR-L23 (Non-Small Cell Lung Carcinoma)
# Method in brief: as §1
# [4] = system: COR-L95 (Small Cell Lung Carcinoma)
# Method in brief: as §1
# [5] = system: CTV-1 (T-Lymphoblastic Leukemia)
# Method in brief: as §1
# [6] = system: HCC2157 (Breast Carcinoma)
# Method in brief: as §1
# [7] = system: HT-29 (Colorectal Carcinoma)
# Method in brief: as §1
# [8] = system: IGR-1 (Melanoma)
# Method in brief: as §1
# [9] = system: J82 (Bladder Carcinoma)
# Method in brief: as §1
# [10] = system: KARPAS-620 (Plasma Cell Myeloma)
# Method in brief: as §1
# [11] = system: KATOIII (Gastric Carcinoma)
# Method in brief: as §1
# [12] = system: LU-99A (Non-Small Cell Lung Carcinoma)
# Method in brief: as §1
# [13] = system: MDA-MB-231 (Breast Carcinoma)
# Method in brief: as §1
# [14] = system: NCI-H1793 (Lung Adenocarcinoma)
# Method in brief: as §1
# [15] = system: SNU-C5 (Colorectal Carcinoma)
# Method in brief: as §1
# [16] = system: SW1088 (Low Grade Glioma)
# Method in brief: as §1
# [17] = system: SW1990 (Pancreatic Carcinoma)
# Method in brief: as §1
# [18] = system: SW756 (Cervical Carcinoma)
# Method in brief: as §1
# [19] = system: TGBC24TKB (Biliary Tract Carcinoma)
# Method in brief: as §1
# [20] = system: U-266 (Plasma Cell Myeloma)
# Method in brief: as §1
Structure (SMILES),Bliss excess [1],Bliss excess [2],Bliss excess [3],Bliss excess [4],Bliss excess [5],Bliss excess [6],Bliss excess [7],Bliss excess [8],Bliss excess [9],Bliss excess [10],Bliss excess [11],Bliss excess [12],Bliss excess [13],Bliss excess [14],Bliss excess [15],Bliss excess [16],Bliss excess [17],Bliss excess [18],Bliss excess [19],Bliss excess [20]
"Cn1cnc2c(F)c(Nc3ccc(Br)cc3Cl)c(C(=O)NOCCO)cc21 [Selumetinib] + C[C@@H]1COCCN1C2=NC(=NC(=C2)C3(CC3)[S@](=N)(=O)C)C4=C5C=CNC5=NC=C4 [AZD6738] (first compound max 10 µM, 7x7, partner max 10 µM)",-0.0911,-0.0112,-0.0148,-0.0778,-0.001,0.0059,-0.019,0.0257,0.0262,0.0471,-0.0433,0.0565,-0.025,-0.0402,0.0751,-0.0737,-0.0653,0.0323,0.0704,-0.0303
"CC(=O)Nc1cccc(-n2c(=O)n(C3CC3)c(=O)c3c(Nc4ccc(I)cc4F)n(C)c(=O)c(C)c32)c1 [Trametinib] + Cc1nc(-c2cn3c(n2)-c2ccc(-c4cnn(C(C)(C)C(N)=O)c4)cc2OCC3)n(C(C)C)n1 [Taselisib] (first compound max 1 µM, 7x7, partner max 10 µM)",0.0728,0.148,0.162,0.0096,0.328,0.0554,0.0526,0.15,0.0623,0.24,0.0938,0.116,0.142,0.0519,0.0951,0.0579,0.148,0.0988,0.196,0.181
"CC1(C)CCC(CN2CCN(c3ccc(C(=O)NS(=O)(=O)c4ccc(NCC5CCOCC5)c([N+](=O)[O-])c4)c(Oc4cnc5[nH]ccc5c4)c3)CC2)=C(c2ccc(Cl)cc2)C1 [Venetoclax] + C1CN(CCC1(C(=O)N[C@@H](CCO)C2=CC=C(C=C2)Cl)N)C3=NC=NC4=C3C=CN4 [Capivasertib] (first compound max 1 µM, 7x7, partner max 3 µM)",-0.0387,-0.0274,-0.0525,0.0145,-0.0319,-0.0055,-0.0325,-0.0602,-0.0827,0.0971,-0.0691,-0.0702,-0.0443,-0.041,-0.0069,-0.0578,-0.064,-0.0171,0.0325,-0.071
"CC1(C)CCC(CN2CCN(c3ccc(C(=O)NS(=O)(=O)c4ccc(NCC5CCOCC5)c([N+](=O)[O-])c4)c(Oc4cnc5[nH]ccc5c4)c3)CC2)=C(c2ccc(Cl)cc2)C1 [Venetoclax] + C=CCn1c(=O)c2cnc(Nc3ccc(N4CCN(C)CC4)cc3)nc2n1-c1cccc(C(C)(C)O)n1 [AZD1775] (first compound max 1 µM, partner max 1 µM)",-0.0817,-0.0185,-0.0609,0.001,-0.0327,-0.0554,0.008,0.0147,-0.0832,0.0191,0.0093,-0.0533,-0.0666,-0.0007,-0.0339,-0.003,0.0206,-0.0401,-0.0108,0.104
"CC1(C)CCC(CN2CCN(c3ccc(C(=O)NS(=O)(=O)c4ccc(NCC5CCOCC5)c([N+](=O)[O-])c4)c(Oc4cnc5[nH]ccc5c4)c3)CC2)=C(c2ccc(Cl)cc2)C1 [Venetoclax] + CCN(CCO)CCCOc1ccc2c(Nc3cc(CC(=O)Nc4cccc(F)c4)[nH]n3)ncnc2c1 [AZD2811] (first compound max 1 µM, 7x7, partner max 1 µM)",0.0143,-0.024,-0.0428,0.0474,-0.0281,-0.0305,0.0012,0.0261,-0.014,0.169,-0.0226,-0.0012,-0.013,-0.0039,0.0063,-0.0469,0.0024,-0.0292,0.005,-0.0216
"CC1(C)CCC(CN2CCN(c3ccc(C(=O)NS(=O)(=O)c4ccc(NCC5CCOCC5)c([N+](=O)[O-])c4)c(Oc4cnc5[nH]ccc5c4)c3)CC2)=C(c2ccc(Cl)cc2)C1 [Venetoclax] + CN(C)CCCOc1ccc(-c2ccc3ncc4c(c3c2)n(C2CCOCC2)c(=O)n4C)cn1 [AZD0156] (first compound max 1 µM, 7x7, partner max 1 µM)",-0.0043,0.0025,-0.0064,0.0051,-0.0103,0.0314,-0.0086,0.0116,0.0014,0.04,-0.0156,-0.0375,0.0067,-0.0158,-0.0123,-0.0651,-0.0056,-0.0215,0.0307,0.0264
"CC1(C)CCC(CN2CCN(c3ccc(C(=O)NS(=O)(=O)c4ccc(NCC5CCOCC5)c([N+](=O)[O-])c4)c(Oc4cnc5[nH]ccc5c4)c3)CC2)=C(c2ccc(Cl)cc2)C1 [Venetoclax] + COc1cc(Nc2ncc3c(n2)-c2ccc(Cl)cc2C(c2c(F)cccc2OC)=NC3)ccc1C(=O)O [Alisertib] (first compound max 1 µM, 7x7, partner max 10 µM)",-0.0353,-0.0475,-0.0201,0.134,-0.0095,0.113,0.0016,0.0759,-0.0336,0.284,-0.0587,-0.0244,0.0102,-0.0577,-0.0682,0.0049,-0.074,-0.0426,0.0487,0.131
